Where “and” joins values, the source holds several entries; their conditions need not be identical. Identical values can stand only once.
Key:
Aqueous dispersibility = type: physicochemical; details: sterile-filtered deionized water
From the text: In some embodiments, highly water-dispersible C40 carotenoid derivatives may include natural source RRR-lutein (β,ε-carotene-3,3′-diol) derivatives. Derivatives may be synthesized by esterification with inorganic phosphate and succinic acid, respectively, and subsequently converted to the sodium salts. Deep orange, evenly colored aqueous suspensions were obtained after addition of these derivatives to USP-purified water. […] Aqueous suspensions may be obtained without the addition of heat, detergents, co-solvents, or other additives.
Disodium disuccinate astaxanthin (DDA; see FIG. 1B) was synthesized from commercially available crystalline astaxanthin (Buckton Scott, India) as previously described in Frey, et al. (“The efficient synthesis of disodium disuccinate astaxanthin (Cardax).” Org Process Res Dev 8: 796-801, 2004.). The final product purity was 97% (as area under the curve) by HPLC analysis. DDA was dissolved directly in sterile-filtered deionized water. The maximum aqueous dispersibility of DDA is approximately 10 mM, or 8.64 mg/ml. Vehicle consisted of isotonic sterile 0.9% NaCl solution.

[1] = Hemodynamic variables during canine thrombosis protocol; type: in vivo, beagle dogs
platelet aggregation = experiment: Ex vivo platelet aggregation induced with ADP or AA; type: in vivo, beagle dogs
Experimental: Whole blood (10 ml) was drawn from a right femoral vein cannula into a plastic syringe containing 3.7% sodium citrate as the anticoagulant (1:100 volume ratio of citrate to blood). A whole blood cell count was determined with an H-2000 cell counter (Texas International Laboratories, Inc., Culver City, Calif.). Platelet-rich plasma (PRP), the supernatant present after centrifugation of whole blood at 100×g for 10 min, was diluted with Platelet-poor plasma (PPP) to achieve a platelet count of approximately […]. PPP was prepared by centrifuging the remaining blood at 1,500×g for 10 min and discarding the bottom cellular layer. Ex vivo platelet aggregation was assessed by established spectrophotometric methods with the use of a four-channel aggregometer (BioData PAP-4; BioData Corp., Horsham, Pa.) by recording the increase in light transmission through a stirred suspension of PRP maintained at 37° C. Aggregation was induced with ADP (20 μM) or AA (0.65 mM). A subaggregatory concentration of epinephrine (550 nM) was used to prime the platelets before addition of the agonists to induce platelet aggregation. Values for platelet aggregation are expressed as percentage of light transmission standardized to PRP and PPP samples yielding 0 and 100% light transmission, respectively.

[2] = tested on: left carotid artery (LCA) thrombosis; experiment: Canine thrombosis model: left carotid artery reocclusion following rt-PA fibrinolytic therapy; type: in vivo, beagle dogs; details: for Incidence of Re-occlusion: 0.9% NaCl group 5/7; for Platelet Count (Post rt-PA) / Time to thrombolysis: mean±SEM; for reduction in thrombus weights compared to 0.9% NaCl solution: end of protocol
Experimental: The experimental model used is a modification of that described by Hong, et al., (Thromb Res 117: 333-342, 2006), Rebello, et al., (Arterioscler Thromb Vasc Biol 18: 954-960, 1998), and Rote, et al. (Cardiovasc Res 27: 500-507, 1993). Healthy male or female purpose-bred beagle dogs (9-13 kg) were anesthetized with sodium pentobarbital (30 mg/kg, i.v.), intubated and ventilated with room air at a tidal volume of 30 ml/kg and a rate of 12 breaths per minute. The left carotid artery (LCA) was exposed by blunt dissection using care not to injure the vessel. An external adjustable stainless steel constrictor was shaped to fit each vessel and adjusted with a nylon screw (2 mm in diameter) to reduce the pulsatile flow pattern by 50% without altering the mean carotid artery blood flow rate. Vascular injury was accomplished with the application of a low anodal current to the intimal surface of the vessel via an intravascular electrode composed of a Teflon® insulated, silver-coated, copper wire. The intravascular electrode was connected to the positive pole (anode) of a dual-channel square wave generator (Grass S88 stimulator) and a Grass Constant Current Unit; model CCUIA (Grass Instrument Division, Astro-Med, Inc. West Warwick, R.I.). The cathode was attached at a remote subcutaneous site. The current (300 μA) applied to the intimal surface of the vessel was monitored continuously. The intravascular electrode and mechanical constrictor were upstream with respect to the flow probe. Blood flow in the carotid artery was quantified using a graded patency scoring system of 0-3 as described previously (16), in which a score of 0 represents no flow (total occlusion), 1-2 represents varying degrees of reduced and cyclic patterns of flow and 3 represents non-oscillatory or uninterrupted blood flow.
FIG. 8 illustrates the experimental protocol. Twenty-eight dogs were randomized between four treatment groups receiving either DDA (10, 30 or 50 mg/kg i.v. n=7 per group) or 0.9% NaCl (n=7). Experimental thrombosis of the left carotid artery (LCA) was induced to achieve total occlusion of blood flow. Thirty minutes later, the animals received an intravenous infusion of DDA or an equivalent volume of 0.9% NaCl solution for thirty minutes (flow rate depended on dose of DDA). The drug treatment was followed by intra-carotid administration of rtPA (0.54 μg/kg bolus+3.26 μg/kg/h infusion) delivered immediately proximal to the occlusive thrombus. The infusion of rtPA was discontinued 10 min after establishing 20% of the original flow. The end-point determinations consisted of: (1) time to thrombolysis, (2) incidence of LCA reocclusion (secondary thrombosis), (3) vessel patency scores assessed by dynamic flow recordings, and (4) thrombus weight.
The data are expressed as mean±SEM and were analyzed by one-way analysis of variance for group comparisons followed by a Dunnett's post hoc t-test to determine the level of significance. The incidence of carotid artery reocclusion was compared between the groups by chi-square test. The change over time in the vessel blood flow patency score was compared between two groups by two-way analysis of variance followed by Bonferroni post-tests to determine the level of significance. Values are considered statistically different at p<0.05.

[3] = DDA 10 mg/kg i.v. followed by rt-PA
[4] = DDA 30 mg/kg i.v. followed by rt-PA
[5] = DDA 50 mg/kg i.v. followed by rt-PA

CC1=C(/C=C/C(C)=C/C=C/C(C)=C/C=C/C=C(C)/C=C/C=C(C)/C=C/C2=C(C)C(=O)C(OC(=O)CCC(=O)O)CC2(C)C)C(C)(C)CC(OC(=O)CCC(=O)O)C1=O (centres unmarked) [DDA, Disodium disuccinate astaxanthin]
maximum aqueous dispersibility (Aqueous dispersibility): approximately 10 mM and ~8.64 mg/ml
time for blood pressure to return to original values ([1]; DDA 50 mg/kg): ≤ 30 min
transient decrease in arterial blood pressure ([1]; DDA 50 mg/kg, seen in 5 dogs): < 15%
mean arterial blood pressure and heart rate throughout the protocol ([1]; all groups (DDA 10, 30, 50 mg/kg)): did not differ significantly
ex vivo platelet aggregation responses to AA and ADP (platelet aggregation; DDA 10, 30 or 50 mg/kg, ADP 20 μM or AA 0.65 mM): dose dependently attenuated
ex vivo platelet aggregation (platelet aggregation; DDA 30 and 50 mg/kg doses): Significant reductions
Incidence of Re-occlusion [2, 3]: 6/7
Platelet Count (Post rt-PA) [2, 3]: 352 ± 37
Time to thrombolysis [2, 3]: 20.3 ± 6.7 min
arterial patency score (0-3) ([2]; DDA 10 mg/kg, 0-30 min after rt-PA): 1.4 ± 0.2
arterial patency score (0-3) ([2]; DDA 10 mg/kg, 30-60 min after rt-PA): 1.3 ± 0.4
arterial patency score (0-3) ([2]; DDA 10 mg/kg, 60-90 min after rt-PA): 1.1 ± 0.3
arterial patency score (0-3) ([2]; DDA 10 mg/kg, 90-120 min after rt-PA): 1.1 ± 0.4
arterial patency score (0-3) ([2]; DDA 10 mg/kg, 120-150 min after rt-PA): 0.4 ± 0.4
arterial patency score (0-3) ([2]; DDA 10 mg/kg, 150-180 min after rt-PA): 0.4 ± 0.4
Incidence of Re-occlusion [2, 4]: 3/7
Platelet Count (Post rt-PA) [2, 4]: 316 ± 32
Time to thrombolysis [2, 4]: 20.6 ± 7.9 min
reduction in thrombus weights compared to 0.9% NaCl solution ([2]; DDA 30 mg/kg i.v.): 43±4%
arterial patency score (0-3) ([2]; DDA 30 mg/kg, 0-30 min after rt-PA): 1.3 ± 0.2
arterial patency score (0-3) ([2]; DDA 30 mg/kg, 30-60 min after rt-PA): 1.3 ± 0.4
arterial patency score (0-3) ([2]; DDA 30 mg/kg, 60-90 min after rt-PA): 1.0 ± 0.4
arterial patency score (0-3) ([2]; DDA 30 mg/kg, 90-120 min after rt-PA): 1.6 ± 0.5
arterial patency score (0-3) ([2]; DDA 30 mg/kg, 120-150 min after rt-PA): 1.1 ± 0.5
arterial patency score (0-3) ([2]; DDA 30 mg/kg, 150-180 min after rt-PA): 1.4 ± 0.5
Incidence of Re-occlusion [2, 5]: 1/7
Platelet Count (Post rt-PA) [2, 5]: 363 ± 66
Time to thrombolysis [2, 5]: 24.0 ± 6.0 min
reduction in thrombus weights compared to 0.9% NaCl solution ([2]; DDA 50 mg/kg i.v.): 42±5%
arterial patency score (0-3) ([2]; DDA 50 mg/kg, 0-30 min after rt-PA): 1.9 ± 0.3
arterial patency score (0-3) ([2]; DDA 50 mg/kg, 30-60 min after rt-PA): 2.4 ± 0.3
arterial patency score (0-3) ([2]; DDA 50 mg/kg, 60-90 min after rt-PA): 2.3 ± 0.4
arterial patency score (0-3) ([2]; DDA 50 mg/kg, 90-120 min after rt-PA): 2.3 ± 0.5
arterial patency score (0-3) ([2]; DDA 50 mg/kg, 120-150 min after rt-PA): 2.3 ± 0.4
arterial patency score (0-3) ([2]; DDA 50 mg/kg, 150-180 min after rt-PA): 2.3 ± 0.5
time to clot lysis compared with 0.9% NaCl-treated animals ([2]; DDA 10, 30 or 50 mg/kg followed by rt-PA): similar
whole blood platelet counts ([2]; dog, in vivo): unaffected
vessel patency score during the protocol ([2]; intermediate and highest doses of DDA (30 and 50 mg/kg)): progressive improvement
